Read-outs that look alike come from different tables or passages of the source.

Assay [1] relates to specimen of rat aorta. As to the kind of experiment: Vasorelaxation activity in a specimen of rat aorta: contraction caused by TEA and BaCl2. To be noted: TEA (30-45 mM) and BaCl2 (0.3 mM) contraction, read-out: constriction inhibitory ratio. The gist of the method: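 Aortic rings (5 mm) from male Wistar rats aged 10–13 weeks were held in oxygenated Krebs solution at 36 °C with isometric tension recorded. After 1 h stabilisation, rings were contracted with TEA (30-45 mM) plus BaCl2 (0.3 mM); once contraction was steady (~15 min), compound was added and relaxation measured.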

Assay [2] deals with specimen of rat aorta. As to the kind of experiment: Vasorelaxation activity in a specimen of rat aorta: contraction caused by KCl. To be noted: read-out: constriction inhibitory ratio. The gist of the method: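 Aortic rings from male Wistar rats (10–13 weeks) in oxygenated Krebs at 36 °C, isometric tension recorded. Contraction induced with KCl ([…]) instead of TEA/BaCl2; compound added at steady state (~15 min) and relaxation measured.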

The test system of assay [3] is Spontaneously hypertensive rats. The assay can be described thus: Hypotensive activity in rats (Tail Cuff Method), oral. In kind it is in vivo. The settings on record: Rattus norvegicus, SHR. As to the method:
Hypotensive activity in rats (Tail Cuff Method)
Spontaneously hypertensive rats (SHR, male, 20 to 23 week old) were warmed up to 36° C. The blood pressure at the tail aorta was measured by the tail cuff method. The blood pressure was measured three times, i.e. before oral administration of the test compound, two hours after the administration and five hours after the administration. The test compound was orally administered in the state of a suspension in gum arabic.
Maximal, hypotensive effect against the blood pressure before the administration is shown as % pre. in Table 66. As a result, it is apparent that the compounds of this invention show hypotensive activity.

In the next assay the test system is anesthetized dogs. As to the kind of experiment: Action of increasing coronary blood flow in anesthetized dogs (administration into coronary artery). In kind it is in vivo, dog. To be noted: injected into coronary artery, 30 ug/day, anesthetized Beagle dogs. As to the method:
Action of increasing coronary blood flow in anesthetized dogs (Administration into coronary artery) Method: Beagle dogs (10 to 12 kg body weight) were anesthetized with pentobarbital and subjected to thoractomy under artificial respiration. A by-pass fitted with an electromagnetic flowmeter (Nippon Koden) was prepared between the left coronary artery and left carotid artery,and the volume of coronary blood flow was measured. […]
Maximal change rate against the value measured before the administration (% of basal flow) and the duration period [shown in terms of the time (T1/2) in which the activity is reduced to half] are shown in Table 67. As a result, it is apparent that the compounds of this invention show action of increasing coronary blood flow.

Where [4] appears, read: after 2 hours, read-out: Maximal hypotensive effect against blood pressure before administration (% pre.), after 2 hours.
[5] abbreviates: after 5 hours, read-out: Maximal hypotensive effect against blood pressure before administration (% pre.), after 5 hours.

As for `CC(C)(C)C/N=C(/c1cc(Br)ccc1O)c1cccc[n+]1[O-]` [Compound 105, (Z)-2-[(5-bromo-2-hydroxy)-α-neopentyliminobenzyl]pyridine N-oxide], the values for the inhibition at 1 µM with specimen of rat aorta [1] and with specimen of rat aorta [2] were 46% and 4%, respectively. The inhibition at 3 µM in the assay with specimen of rat aorta [1] is 87%; in the assay on specimen of rat aorta [2], 28%. In addition, the figures for the inhibition in vivo at 30 mg/kg in assay [3] (setting [4]) and in assay [3] (setting [5]) were 59% and 44%, respectively. Moreover, the “duration (T1/2): time in which the activity is reduced to half” value in the assay with anesthetized dogs was found to be 2.9 min.
For `Cc1cc(O)c(/C(=N/OC(C)(C)C)c2c(O)ccc[n+]2[O-])cc1Br` [Compound 67, (Z)-2-(5-bromo-2-hydroxy-4-methylbenzoyl)-3-hydroxypyridine N-oxide O-t-butyloxime], the inhibition at 1 µM in the assay with specimen of rat aorta [1] was determined as 32%; in the assay on specimen of rat aorta [2] it was 0%. Further, the inhibition at 3 µM was found to be 89% in the assay on specimen of rat aorta [1] and 0% in the assay with specimen of rat aorta [2]. The inhibition at 10 µM was found to be 100% in the assay on specimen of rat aorta [1] (10 μM) and 0% in the assay on specimen of rat aorta [2] (10 μM). Besides, the inhibition in vivo at 10 mg/kg in assay [3] (setting [4]) came out at 28%; in assay [3] (setting [5]), 35%. In the assay on anesthetized dogs, the “duration (T1/2): time in which the activity is reduced to half” value was determined as 8.9 min.
`CC(C)(C)O/N=C(/c1cc(F)c(F)cc1O)c1ncccc1O` [Compound 34, (Z)-2-(4,5-difluoro-2-hydroxybenzoyl)-3-hydroxypyridine O-t-butyloxime]: the inhibition at 1 µM in the assay on specimen of rat aorta [1] was determined as 54%; in the assay on specimen of rat aorta [2], 4%. The inhibition at 3 µM in the assay with specimen of rat aorta [1] came to 59%; in the assay on specimen of rat aorta [2], 18%. The inhibition in vivo at 10 mg/kg worked out at 27% in assay [3] (setting [4]) and 10% in assay [3] (setting [5]). Besides, the “duration (T1/2): time in which the activity is reduced to half” value in the assay on anesthetized dogs was determined as 3.7 min.
On to `CC(C)(C)O/N=C(/c1cc(Cl)c(F)cc1O)c1ncccc1O` [Compound 36, (Z)-2-(5-chloro-4-fluoro-2-hydroxybenzoyl)-3-hydroxypyridine O-t-butyloxime], for which the inhibition at 1 µM was 81% in the assay with specimen of rat aorta [1] and 0% with specimen of rat aorta [2]. Also, the inhibition at 3 µM worked out at 80% in the assay with specimen of rat aorta [1] and 4% in the assay with specimen of rat aorta [2]. The inhibition in vivo at 10 mg/kg in assay [3] (setting [4]) amounted to 42%; in assay [3] (setting [5]) it was 30%. Moreover, the “duration (T1/2): time in which the activity is reduced to half” value in the assay on anesthetized dogs came to 4.8 min.

The values above are taken from patent publication US5716971A, “Pyridine derivatives, their production and use” (Takeda Chemical Industries, Ltd., priority 1993, dated 1998).
